Laboratory results as given in PubChem BioAssay (NCI).
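Test compounds were applied to cells in 96-well plates for 48 hours at 5 doses. GI50: concentration for 50% inhibition of growth. TGI denotes the concentration required for complete inhibition of growth.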

Experiments:
Test in all cases: NCI anticancer screen, dose series, 48 h
[1] = test system: RXF 393 renal
[2] = test system: IGROV1 ovarian
[3] = test system: OVCAR-3 ovarian
[4] = test system: NCI-H226 lung
[5] = test system: SN12C renal
[6] = test system: HCT-116 colon
[7] = test system: RPMI-8226 leukemia
[8] = test system: SR leukemia
[9] = test system: HT29 colon
[10] = test system: OVCAR-4 ovarian

SMILES | TGI [1] [µM] | TGI [2] [µM] | TGI [3] [µM] | TGI [4] [µM] | TGI [5] [µM] | TGI [6] [µM] | TGI [7] [µM] | TGI [8] [µM] | TGI [9] [µM] | TGI [10] [µM] | GI50 [4] [µM] | GI50 [7] [µM]
COC(=O)CCCc1ccc2c(c1)CC1(C2)Cc2cc3c(cc2C1)CCCC3 | 94.2 | > 100 | > 100 | > 100 | > 100 | 15.9 | 85.2 | 0.713 | > 100 | > 100 |  | 
CN1CC2=C(OC(N)=C(C#N)C2c2cccs2)/C(=C/c2cccs2)C1 (centres undefined) | 48.5 | > 65.8 | 56.5 | > 100 | > 100 | > 49.3 | > 42.7 | > 100 | > 78.3 | 39.4 |  | 
CCN(CC)Cc1nc2sc3c(c2c(=O)n1-c1ccccc1)CCCC3 | 37.6 | 39 | 34.8 | 33 | 37.8 | 39.4 | 81.9 | > 100 | 29.3 | 97.4 |  | 
COc1ccc2nc3cc(Cl)ccc3c(NCCCCCC(=O)NC(COc3cnc4c(ccc5cccnc54)c3)COc3cnc4c(ccc5cccnc54)c3)c2c1 | 30.2 | > 100 | 34.6 | 21.8 | > 100 | 14.9 | 20.2 | 11.7 | > 100 | > 100 |  | 
CC(=O)NNc1nc(C)c(C(/C=C/c2ccc3c(c2)OCO3)=N/Nc2ccccc2)s1 | > 100 | > 100 | > 100 | > 100 | > 100 | > 100 | > 100 | > 100 | > 100 | > 100 |  | 
Cc1ccc(C)n2c1nc1ccc3ccccc3c12 | > 100 | > 100 | > 100 | > 100 | > 100 |  | > 100 | > 100 | > 100 |  |  | 
COc1cc(OC)c2c(O)cc(CC(C)O)cc2c1 (centres undefined) | > 100 | > 100 | > 100 |  | > 100 | > 100 | > 100 | > 100 | > 100 | > 100 |  | 
S=C1c2ccccc2NC(=NC2CCCC2)C2CSCN12 (centres undefined) | > 100 | > 100 | > 100 | > 100 | > 100 | > 100 | > 100 | > 100 | > 100 | > 100 |  | 
C=CCC(C)C12CCNC(Cc3ccc(O)cc31)C2C (centres undefined) | > 100 | > 100 |  | > 100 | > 100 | > 100 | > 100 | > 100 | > 100 | > 100 |  | 
Cc1ccc([N+](=O)[O-])cc1S(=O)(=O)Nc1ccc(C2=NN(c3ccc([N+](=O)[O-])cc3[N+](=O)[O-])C(c3ccccc3)C2)cc1 (centres undefined) | 33.4 | 36 | 28.4 | 35.6 | 33.2 | 27.4 | > 100 | 90 | 37.6 | 73.7 |  | 
Brc1ccc(N=NN2CCCCC2)cc1 | > 100 | > 100 | > 100 | > 100 | > 100 | > 100 | 30.9 | 41.7 |  | > 100 |  | 
CC(=O)C(C(C)=O)=C1CCCC(O)O1 (centres undefined) | > 100 | > 100 |  | > 100 | > 100 | > 100 | > 100 | > 100 | > 100 | > 100 |  | 
Cn1ccnc1S/C(=C\C=C(C#N)C#N)c1ccc(Cl)cc1 | 5.4 | 16.1 | 5.29 | > 22.8 | > 25.7 | 1.58 | 53.6 | 0.367 | 16.2 | > 17.9 | 3.97 | 19.2
O=c1c2ccccc2[nH]c(=S)n1-c1ccc(Br)cc1 | > 100 | > 100 | > 100 | > 100 | > 100 | > 100 | > 100 | > 100 | > 100 | > 100 |  | 
CC(=O)O/C=C\OC1CCCC1(c1ccccc1)c1ccccc1 (centres undefined) | 5.06 | 6.08 | 7.59 | 24.8 | 10.3 | 4.19 | 6.13 | 4.93 | 8.71 | 7.25 |  | 
CCc1cccc(C(C)C)c1NC(=O)C(=O)C(Cc1nc2ccccc2[nH]c1=O)C(=O)OC (centres undefined) | > 100 | > 100 | > 100 | > 100 | > 100 | > 100 | > 100 | > 100 | > 100 | > 100 |  | 
CC(C)Oc1c(-c2c(OC(C)C)c(=O)c2=O)c(=O)c1=O | > 78.5 | > 51.5 |  | > 100 | > 62.7 | > 51 | > 71.8 | > 100 | > 58.3 | > 62.9 |  | 
CCOC/N=C(/N)NC#N | > 100 | > 100 | > 100 | > 100 | > 100 | > 100 | > 100 | > 100 | > 100 |  |  | 
CSc1nc(NC2CCCC2)c2cc[nH]c2n1 | > 100 | > 100 | > 100 | > 100 | > 100 | > 100 | > 100 | 61.6 | > 100 | > 100 |  | 
Cc1ccc(C(=O)OC[C@H]2CC[C@@H](n3cc(N(C)C4CCCCC4)c(=O)[nH]c3=O)O2)cc1 | 37.7 | > 100 | 54.4 | 56.6 | 39.5 | 32.4 | 77.9 | > 100 | 37.8 | 68.4 |  | 
COc1cccc(N2C(=O)C3c4[nH]c5ccccc5c4C4c5ccccc5CCC4C3C2=O)c1 (centres undefined) | > 10 | > 10 | > 10 | > 7.52 | > 10 | > 10 | > 10 | > 4.01 | > 10 | > 7.12 |  | 
